From patent US20080274192A1, “Pharmaceutical Compositions Comprising an Amorphous Form of a Vegf-R-Inhibitor” (PFIZER INC., priority 2005, published 2008)
Values after ≈ are worked out from the molar mass of the structure shown.

What was measured:
Format in all cases: physicochemical
[1] = in vitro dissolution test in MFD solution, dosed as oral powder for constitution; details: for AUC90 (area under the concentration-versus-time curve during the initial ninety minutes) / MDC90 (maximum dissolved concentration during the initial ninety minutes): MFD solution pH 6.5, 37° C., 200 μgA/mL dosed; for MDC90 (maximum dissolved concentration during the initial ninety minutes): pre-wetted with PBS/Methocel A/HPMCAS-H (OPC model)
Procedure: An in vitro dissolution test was performed to determine the dissolution performance of amorphous Compound A relative to crystalline Compound A. For this test, a sufficient amount of material was added to a microcentrifuge test tube so that the concentration of Compound A would have been 200 μgA/mL, if all of the compound had dissolved. The test was run in duplicate. First, 50 μL PBS containing 0.5 wt % Methocel A and 5 mg/mL HPMCAS-H was added to the sample in the tube and mixed using a vortex mixer, to model an oral powder for constitution dosage form. The tubes were placed in a 37° C. temperature-controlled chamber, and 1.8 mL PBS at pH 6.5 and 290 mOsm/kg, containing 7.3 mM sodium taurocholic acid and 1.4 mM of 1-palmitoyl-2-oleyl-sn-glycero-3-phosphocholine, was added to each respective tube. The samples were quickly mixed using a vortex mixer for about 60 seconds. The samples were centrifuged at 13,000 G at 37° C. for 1 minute. The resulting supernatant solution was then sampled and diluted 1:6 (by volume) with methanol and then analyzed by HPLC as described above. The contents of each tube were mixed on the vortex mixer and allowed to stand undisturbed at 37° C. until the next sample was taken. Samples were collected at 4, 10, 20, 40, 90, and 1200 minutes.
A similar test was performed with crystalline Compound A alone (Example 1), and a sufficient amount of material was added so that the concentration of compound would have been 200 μgA/mL, if all of the compound had dissolved.
The concentrations of Compound A obtained in these samples were used to determine the maximum dissolved concentration of Compound A (“MDC90”) and the area under the concentration-versus-time curve (“AUC90”) during the initial ninety minutes.
For these tests, a sufficient amount of material was added so that the concentration of Compound A would have been 200 μgA/mL, if all of the compound had dissolved. The results for the solid amorphous dispersion of Example 2 are included in Table 6, as are the results for tests with pure amorphous Compound A (Example 1) and crystalline Compound A (Example 1).

pKa of Compound A = details: crystalline polymorphic Form IV
[2] = solubility in model fasted duodenal solution; details: fassif, pH 6.5, 37° C.
Excerpt: Compound A can exist in several different crystalline forms, as described in U.S. Provisional Application 60/624,665, filed on Nov. 2, 2004, which is incorporated herein by reference. Compound A in the crystalline form referred to as polymorphic Form IV has a pKa of about 4.2, and a solubility that is dependent on the pH of the solution, with the solubility being higher at low pH than at high pH. […] This pH-dependent solubility combined with a low in vivo rate of absorption results in low oral bioavailability, as well as significant subject-to-subject pharmacokinetic variability, for crystalline Compound A. Accordingly, there is a need to improve the bioavailability and reduce pharmacokinetic variability of Compound A relative to its crystalline form.

[3] = in vitro dissolution test in MFD solution, material added directly; details: MFD solution pH 6.5, 37° C., 200 μgA/mL dosed, no OPC pre-wetting
Procedure: An in vitro dissolution test was performed to determine the dissolution performance of the solid amorphous dispersion of Compound A relative to crystalline Compound A. For this test, a sufficient amount of material was added to a microcentrifuge test tube so that the concentration of Compound A would have been 200 μgA/mL, if all of the compound had dissolved. The test was run in duplicate. The tubes were placed in a 37° C. temperature-controlled chamber, and 1.8 mL PBS at pH 6.5 and 290 mOsm/kg, containing 7.3 mM sodium taurocholic acid and 1.4 mM of 1-palmitoyl-2-oleyl-sn-glycero-3-phosphocholine, was added to each respective tube. The samples were quickly mixed using a vortex mixer for about 60 seconds. The samples were centrifuged at 13,000 G at 37° C. for 1 minute. The resulting supernatant solution was then sampled and diluted 1:6 (by volume) with methanol and analyzed by high-performance liquid chromatography (HPLC). HPLC analysis was performed using a Waters C18 column. The mobile phase consisted of 65% 20 mM ammonium phosphate, adjusted to pH 3 with H3PO4, and 35% acetonitrile. UV absorbance was measured at 350 nm. The contents of each tube were mixed on the vortex mixer and allowed to stand undisturbed at 37° C. until the next sample was taken. Samples were collected at 4, 10, 20, 40, 90, and 1200 minutes. […]

AUC90 (area under the concentration-versus-time curve during the initial ninety minutes) ([1]; OPC model)	MDC90 (maximum dissolved concentration during the initial ninety minutes) [1]	AUC90 relative to crystalline Compound A ([1]; OPC model, MFD solution)	MDC90 relative to crystalline Compound A ([1]; OPC model, MFD solution)	pKa (pKa of Compound A)	solubility [2]	AUC90 (area under the concentration-versus-time curve during the initial ninety minutes) [3]	MDC90 (maximum dissolved concentration during the initial ninety minutes) [3]	Structure (SMILES)
1700 min * μgA/mL	48 μgA/mL	5.7 fold	16 fold					CNC(=O)c1ccccc1Sc1ccc2c(/C=C/c3ccccn3)n[nH]c2c1 [Example 1, 6-[2-(methylcarbamoyl)phenylsulfanyl]-3-E-[2-(pyridin-2-yl)ethenyl]indazole]
				~4.2	~4 µg/mL (≈ 10.3 µM)			CNC(=O)c1ccccc1Sc1ccc2c(/C=C/c3ccccn3)n[nH]c2c1 [Compound A, 6-[2-(methylcarbamoyl)phenylsulfanyl]-3-E-[2-(pyridin-2-yl)ethenyl]indazole]
300 min * μgA/mL	3 μgA/mL					200 min * μgA/mL	3 μgA/mL	CNC(=O)c1ccccc1Sc1ccc2c(/C=C/c3ccccn3)n[nH]c2c1 [Crystalline Compound A, 6-[2-(methylcarbamoyl)phenylsulfanyl]-3-E-[2-(pyridin-2-yl)ethenyl]indazole]
